Experimental findings from PubChem BioAssay (NCI) are described below.

Where “and” joins values, the source holds several entries; their conditions need not be identical. Equal values may be shown once.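 Results reflect a 48-hour exposure of cells in 96-well plates to compound at five concentrations. At the GI50, growth is halved. At the TGI there is no net growth.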

Test systems include OVCAR-4 ovarian; SK-OV-3 ovarian; K-562 leukemia; MCF7 breast; ACHN renal; SF-295 CNS; HCT-15 colon; M14 melanoma; NCI-H226 lung; HL-60(TB) leukemia.
What all share (assay): inhibition of tumour cell growth, NCI panel, 48 h

Consider `NC(Cc1c[nH]c2ccc(F)cc12)C(=O)O` (centres undefined), for which the GI50 with OVCAR-4 ovarian is 953 µM; in the assay with SK-OV-3 ovarian, 451 µM; in the assay with K-562 leukemia, 887 µM; in the assay with MCF7 breast, 911 µM; with ACHN renal, 738 µM; in the assay on SF-295 CNS, 609 µM. The GI50 is 1180 µM in the assay on HCT-15 colon, 643 µM in the assay with M14 melanoma, 626 µM in the assay on NCI-H226 lung and 737 µM in the assay on HL-60(TB) leukemia. The TGI was above 2500 µM in the assay on OVCAR-4 ovarian; 1370 µM in the assay on SK-OV-3 ovarian; above 2500 µM with K-562 leukemia; above 2500 µM in the assay on MCF7 breast; above 2500 µM in the assay on ACHN renal; 1500 µM with SF-295 CNS. The TGI in the assay with HCT-15 colon, in the assay with M14 melanoma, in the assay on NCI-H226 lung and in the assay on HL-60(TB) leukemia was above 2500 µM each time.
As for `C[C@@H](NC(=O)c1ncnc(N)c1Cl)c1ncc(C(=O)Nc2cc(C(F)(F)F)c(Cl)cn2)s1`, the GI50 in the assay on OVCAR-4 ovarian was 20.7 µM; in the assay with SK-OV-3 ovarian, 31.2 µM; with K-562 leukemia, 0.462 µM; in the assay on MCF7 breast it was 19.9 µM; in the assay with ACHN renal it was 15.7 µM; in the assay on SF-295 CNS, 13.6 µM. For the same molecule, the GI50 with HCT-15 colon was 21.9 µM; in the assay with M14 melanoma, 0.497 µM; with NCI-H226 lung, 15.4 µM; in the assay on HL-60(TB) leukemia it was 3.3 µM. The TGI was 73.3 µM in the assay on OVCAR-4 ovarian; above 93.5 µM with SK-OV-3 ovarian; above 45.9 µM in the assay with K-562 leukemia; 66.1 µM with MCF7 breast; above 100 µM in the assay with ACHN renal; 34.7 µM with SF-295 CNS. Further, the TGI in the assay with HCT-15 colon was above 100 µM; in the assay with M14 melanoma it was 13.6 µM; with NCI-H226 lung it was 74.3 µM; in the assay on HL-60(TB) leukemia it was 29 µM.
For the molecule `C/C(=N/O)c1ccc2c(c1)/C(=N/O)c1ccccc1-2`, the GI50 in the assay on OVCAR-4 ovarian is 15.1 µM; with SK-OV-3 ovarian it was 35.7 µM; with K-562 leukemia, 15.8 µM; in the assay on MCF7 breast it was 15.3 µM; in the assay with ACHN renal it was 20.6 µM; in the assay with SF-295 CNS it was 22.6 µM. Besides, the GI50 in the assay on HCT-15 colon was 17.1 µM; in the assay on M14 melanoma it was 21.9 µM; in the assay on NCI-H226 lung, 22.2 µM; with HL-60(TB) leukemia, 15.8 µM. Moreover, the TGI in the assay with OVCAR-4 ovarian was 45.4 µM; with SK-OV-3 ovarian it was above 100 µM; in the assay with K-562 leukemia it was 32.4 µM; with MCF7 breast it was 35.8 µM; with ACHN renal it was 46.1 µM; in the assay with SF-295 CNS it was 50.4 µM. Further, the TGI was found to be 33.7 µM in the assay on HCT-15 colon, 40.6 µM in the assay with M14 melanoma, 49.7 µM in the assay on NCI-H226 lung and 35.7 µM in the assay with HL-60(TB) leukemia.
With `CCN(CC)c1ccc2nc3c4ccccc4c(=O)cc-3n(-c3ccccc3)c2c1`, the GI50 in the assay with OVCAR-4 ovarian was 1.2 µM; with SK-OV-3 ovarian it was 1.91 µM; with K-562 leukemia it was 2.41 µM; with MCF7 breast, 0.53 µM; in the assay with ACHN renal it was 2.13 µM; with SF-295 CNS, 1.29 µM. In addition, the GI50 with HCT-15 colon was 2.1 µM; in the assay with M14 melanoma, 1.91 µM; in the assay with NCI-H226 lung, 2.04 µM; in the assay on HL-60(TB) leukemia it was 0.273 µM. Besides, the TGI is 15.1 µM in the assay with OVCAR-4 ovarian; 5.92 µM in the assay on SK-OV-3 ovarian; above 100 µM in the assay with K-562 leukemia; 7.83 µM in the assay with MCF7 breast; 14.9 µM in the assay on ACHN renal; 3.28 µM in the assay on SF-295 CNS. For the same molecule, the TGI was found to be 49.3 µM with HCT-15 colon, 3.8 µM in the assay with M14 melanoma, 5.81 µM in the assay with NCI-H226 lung and 0.821 µM in the assay with HL-60(TB) leukemia.
As for `CC(C)(C)NC(=O)[C@H]1CC[C@H]2[C@@H]3CC[C@H]4NC(=O)C=C[C@]4(C)[C@H]3CC[C@]12C`, the GI50 in the assay on OVCAR-4 ovarian was above 100 µM; in the assay with SK-OV-3 ovarian, above 100 µM; in the assay with K-562 leukemia, 53.5 µM and > 100 µM; in the assay on MCF7 breast, above 100 µM; in the assay with ACHN renal, above 100 µM; in the assay on SF-295 CNS, above 100 µM. Further, the GI50 is above 100 µM in the assay on HCT-15 colon; above 100 µM in the assay with M14 melanoma; above 100 µM in the assay with NCI-H226 lung; 41.6 µM and > 100 µM in the assay with HL-60(TB) leukemia. The TGI with OVCAR-4 ovarian, in the assay on SK-OV-3 ovarian, in the assay with K-562 leukemia, in the assay on MCF7 breast, in the assay with ACHN renal and in the assay with SF-295 CNS was above 100 µM throughout. Besides, the TGI with HCT-15 colon, in the assay with M14 melanoma, in the assay with NCI-H226 lung and in the assay with HL-60(TB) leukemia was above 100 µM throughout.
In the case of `COc1ccc(C(=O)O[C@H]2[C@H](O[C@H]3[C@@H](O)COC(O[C@H]4C[C@H]5[C@@H]6CC=C7C[C@@H](O)CC[C@]7(C)[C@H]6CC[C@]5(C)[C@H]4[C@H](C)C(=O)CCC(C)C)[C@@H]3OC(C)=O)OC[C@@H](O)[C@@H]2O)c(C)c1` (some centres undefined), the GI50 was 0.717 µM in the assay on OVCAR-4 ovarian; 0.0246 µM in the assay with SK-OV-3 ovarian; below 0.01 µM in the assay with K-562 leukemia; below 0.01 µM in the assay on MCF7 breast; 0.0312 µM with ACHN renal; below 0.01 µM in the assay with SF-295 CNS. Further, the GI50 was 0.0332 µM in the assay on HCT-15 colon, below 0.01 µM with M14 melanoma, 0.0423 µM in the assay on NCI-H226 lung and 0.0133 µM with HL-60(TB) leukemia. The TGI with OVCAR-4 ovarian was above 100 µM; in the assay on SK-OV-3 ovarian, 9.5 µM; with K-562 leukemia, 13.9 µM; with MCF7 breast, 11 µM; with ACHN renal, 38.9 µM; with SF-295 CNS, below 0.01 µM. For the same molecule, the TGI with HCT-15 colon is 2.05 µM; in the assay on M14 melanoma, 0.0102 µM; in the assay with NCI-H226 lung it was 30.6 µM; with HL-60(TB) leukemia, 28.2 µM.
Consider `NC1=NC(=O)/C(=C/c2ccc3ncccc3c2)S1`, for which the GI50 in the assay on OVCAR-4 ovarian was above 25 µM; in the assay on SK-OV-3 ovarian it was above 25 µM; with K-562 leukemia it was above 25 µM; in the assay with MCF7 breast, above 12.2 µM; with ACHN renal, above 25 µM; in the assay on SF-295 CNS, above 25 µM. Besides, the GI50 in the assay on HCT-15 colon, with M14 melanoma, with NCI-H226 lung and with HL-60(TB) leukemia was above 25 µM throughout. The TGI in the assay on OVCAR-4 ovarian, in the assay with SK-OV-3 ovarian, with K-562 leukemia, in the assay with MCF7 breast, in the assay on ACHN renal and with SF-295 CNS was above 25 µM in each case. The TGI in the assay on HCT-15 colon, with M14 melanoma, with NCI-H226 lung and in the assay on HL-60(TB) leukemia was above 25 µM each time.
With `Cc1ccc(Cl)cc1NC(=O)c1cc2ccccc2cc1O`, the GI50 in the assay with OVCAR-4 ovarian was 0.409 µM; in the assay with SK-OV-3 ovarian, 0.406 µM; with K-562 leukemia it was 0.365 µM; in the assay on MCF7 breast it was 1.35 µM; in the assay on ACHN renal, 0.351 µM; in the assay on SF-295 CNS, 1.14 µM. For the same molecule, the GI50 with HCT-15 colon was 0.506 µM; in the assay on M14 melanoma, 0.325 µM; with NCI-H226 lung it was 0.417 µM; in the assay with HL-60(TB) leukemia, 0.267 µM. Also, the TGI with OVCAR-4 ovarian is above 100 µM; in the assay with SK-OV-3 ovarian it was 2.95 µM; in the assay on K-562 leukemia, 10.1 µM; in the assay on MCF7 breast it was 4.88 µM; in the assay on ACHN renal, 2.8 µM; in the assay with SF-295 CNS, 3.57 µM. In addition, the TGI was found to be 1.21 µM in the assay with M14 melanoma, 3.1 µM in the assay with NCI-H226 lung and 0.768 µM in the assay on HL-60(TB) leukemia.
As for `C(=Nc1cnc2ccccc2c1)c1ccc2ccccc2n1`, the TGI with OVCAR-4 ovarian, with SK-OV-3 ovarian, in the assay on K-562 leukemia, in the assay with MCF7 breast, with ACHN renal and in the assay with SF-295 CNS was above 100 µM throughout. The TGI with HCT-15 colon, with M14 melanoma, in the assay with NCI-H226 lung and in the assay with HL-60(TB) leukemia was above 100 µM throughout.
On to `Nc1nnnc2nc[nH]c12`, for which the GI50 in the assay on OVCAR-4 ovarian is 0.547 µM; in the assay on SK-OV-3 ovarian, 0.327 µM; in the assay on K-562 leukemia, 3.72 µM; in the assay on MCF7 breast it was 2.58 µM; with ACHN renal, 1.08 µM; in the assay on SF-295 CNS, 0.78 µM. Also, the GI50 with HCT-15 colon was 2.64 µM; with M14 melanoma it was 0.568 µM; with NCI-H226 lung, 1.05 µM; in the assay on HL-60(TB) leukemia it was 1.92 µM. Also, the TGI with OVCAR-4 ovarian is above 100 µM; in the assay with SK-OV-3 ovarian, 6.22 µM; in the assay with K-562 leukemia it was above 100 µM; in the assay with MCF7 breast it was above 100 µM; in the assay on ACHN renal, above 100 µM; in the assay on SF-295 CNS, above 29.8 µM. Besides, the TGI is above 100 µM with HCT-15 colon, 4.02 µM in the assay on M14 melanoma, 4.86 µM in the assay with NCI-H226 lung and above 100 µM with HL-60(TB) leukemia.
